Data as given in patent publication US20200017495A1, “NOVEL HETEROCYCLIC COMPOUNDS AND THEIR USE IN PREVENTING OR TREATING BACTERIAL INFECTIONS” (priority 2017, published 2020).

Test system: Enterobacter cloacae (ECL) isolates
Test: MIC of compounds alone and combined with antibacterials, broth microdilution (CLSI)
Type: cell-based
Procedure, shortened: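 First, log-phase suspensions are brought to 5.10^5 CFU/mL final in ca-MHB; plates then incubate 16-20 h at 35° C in air. Growth is judged visually, giving the compound MIC alone and the antibacterial MIC at each compound concentration.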

## C=CC1=C(C(=O)O)N2C(=O)[C@@H](NC(=O)/C(=N\OCC(=O)O)c3csc(N)n3)[C@H]2SC1 [FIX, Cefixime]
ECL 260508, CLA @ 4 μg/mL
  MIC ATB in combination: 32 µg/mL
ECL HAN, AF2 @ 8 μg/mL
  MIC ATB in combination: >128 µg/mL
ECL HAN, AF3 @ 8 μg/mL
  MIC ATB in combination: >128 µg/mL
ECL HAN, CLA @ 4 μg/mL
  MIC ATB in combination: >128 µg/mL
ECL NEM146383, AF2 @ 8 μg/mL
  MIC ATB in combination: >128 µg/mL
ECL NEM146383, AF3 @ 8 μg/mL
  MIC ATB in combination: 16 µg/mL
ECL NEM146383, CLA @ 4 μg/mL
  MIC ATB in combination: >128 µg/mL
ECL P99, AF2 @ 8 μg/mL
  MIC ATB in combination: 4 µg/mL
ECL P99, AF3 @ 8 μg/mL
  MIC ATB in combination: 8 µg/mL
ECL P99, CLA @ 4 μg/mL
  MIC ATB in combination: >128 µg/mL
ECL UFR12, AF2 @ 8 μg/mL
  MIC ATB in combination: <=0.25 μg/mL
ECL UFR12, AF3 @ 8 μg/mL
  MIC ATB in combination: <=0.25 μg/mL
ECL UFR12, CLA @ 4 μg/mL
  MIC ATB in combination: 8 µg/mL
ECL UFR13, AF2 @ 8 μg/mL
  MIC ATB in combination: 4 µg/mL
ECL UFR13, AF3 @ 8 μg/mL
  MIC ATB in combination: 2 µg/mL
ECL UFR13, CLA @ 4 μg/mL
  MIC ATB in combination: 128 µg/mL
ECL UFR14, AF2 @ 8 μg/mL
  MIC ATB in combination: 32 µg/mL
ECL UFR14, AF3 @ 8 μg/mL
  MIC ATB in combination: 32 µg/mL
ECL UFR14, CLA @ 4 μg/mL
  MIC ATB in combination: >128 µg/mL
ECL UFR38, AF2 @ 8 μg/mL
  MIC ATB in combination: <0.25 µg/mL
ECL UFR38, AF3 @ 8 μg/mL
  MIC ATB in combination: >128 µg/mL
ECL UFR38, CLA @ 4 μg/mL
  MIC ATB in combination: >128 µg/mL
ECL UFR51, AF2 @ 8 μg/mL
  MIC ATB in combination: <0.25 µg/mL
ECL UFR51, AF3 @ 8 μg/mL
  MIC ATB in combination: <0.25 µg/mL
ECL UFR51, CLA @ 4 μg/mL
  MIC ATB in combination: >128 µg/mL
ECL UFR60, AF2 @ 8 μg/mL
  MIC ATB in combination: 128 µg/mL
ECL UFR60, AF3 @ 8 μg/mL
  MIC ATB in combination: 8 µg/mL
ECL UFR60, CLA @ 4 μg/mL
  MIC ATB in combination: 128 µg/mL
ECL UFR70, AF2 @ 8 μg/mL
  MIC ATB in combination: <=0.25 μg/mL
ECL UFR70, AF3 @ 8 μg/mL
  MIC ATB in combination: <0.25 µg/mL
ECL UFR70, CLA @ 4 μg/mL
  MIC ATB in combination: >128 µg/mL
ECL UFR84, AF2 @ 8 μg/mL
  MIC ATB in combination: >128 µg/mL
ECL UFR84, AF3 @ 8 μg/mL
  MIC ATB in combination: 64 µg/mL
ECL UFR84, CLA @ 4 μg/mL
  MIC ATB in combination: >128 µg/mL
ECL UFR85, AF2 @ 8 μg/mL
  MIC ATB in combination: <0.25 µg/mL
ECL UFR85, AF3 @ 8 μg/mL
  MIC ATB in combination: 1 µg/mL
ECL UFR85, CLA @ 4 μg/mL
  MIC ATB in combination: >128 µg/mL
ECL UFR200, AF2 @ 8 μg/mL
  MIC ATB in combination: 1 µg/mL
ECL UFR200, AF3 @ 8 μg/mL
  MIC ATB in combination: 0.5 µg/mL
ECL UFR200, CLA @ 4 μg/mL
  MIC ATB in combination: 16 µg/mL
Strain ECL 2185D, genotype OXA-163
  MIC: >128 µg/mL
Strain ECL 190310, genotype AmpC
  MIC: >128 µg/mL
Strain ECL 190408, genotype TEM-1, CTX-M-15, OXA-1
  MIC: 512 µg/mL
Strain ECL 200138, genotype AmpC
  MIC: >128 µg/mL
Strain ECL 200322, genotype TEM-1, CTX-M-15, OXA-1
  MIC: >128 µg/mL
Strain ECL 260033, genotype AmpC
  MIC: >128 µg/mL
Strain ECL 260253, genotype TEM-1, KPC-3
  MIC: >128 µg/mL
Strain ECL 260323, genotype AmpC
  MIC: >128 µg/mL
Strain ECL 260508, genotype TEM-1, CTX-M-15
  MIC: >128 µg/mL
Strain ECL HAN, genotype OXA-35
  MIC: >128 µg/mL
Strain ECL NEM146383, genotype AmpC
  MIC: >128 µg/mL
Strain ECL P99, genotype AmpC
  MIC: >128 µg/mL
Strain ECL UFR12, genotype CTX-M-9, OXA-48
  MIC: 16 µg/mL
Strain ECL UFR13, genotype TEM-1, SHV-12, CTX-M-9, OXA-48
  MIC: >128 µg/mL
Strain ECL UFR14, genotype TEM-1, SHV-12, CTX-M-15, DHA-1, OXA-1, OXA-48
  MIC: >128 µg/mL
Strain ECL UFR38, genotype CTX-M-15, NDM-1
  MIC: >128 µg/mL
Strain ECL UFR51, genotype SHV-12, IMP-8
  MIC: >128 µg/mL
Strain ECL UFR60, genotype TEM-1, CTX-M-15, KPC-2
  MIC: >128 µg/mL
Strain ECL UFR70, genotype TEM-1, CTX-M-15, CMY-2, OXA-1, Porin loss
  MIC: >128 µg/mL
